The text below walks through data of patent publication US20250197382A1, “KIF18A INHIBITOR” (WIGEN BIOMEDICINE TECHNOLOGY (SHANGHAI) CO., LTD., priority 2022, published 2025).

In the test the target is Recombinant human KIF18A (1-467His-tagged) protein (Homo sapiens (Human), UniProt Q8NI77). The test is described as follows: KIF18A enzyme assay (microtubule-stimulated ATPase activity, ADP-Glo). The test is classed as biochemical. The note with it: 30 nM KIF18A, ATP 75 μM, read-out: inhibitory activity against KIF18A IC50. An outline of the steps: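 Baculovirus-expressed human KIF18A (1-467, His-tagged; 30 nM) preincubated 15 min at room temperature with compound (22-point 2-fold series) in pH 7.5 Tris buffer containing 30 μg/mL pig microtubules and 1 μM paclitaxel.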
Recombinant human KIF18A (1-467His-tagged) protein, sequence (Q8NI77 1-467): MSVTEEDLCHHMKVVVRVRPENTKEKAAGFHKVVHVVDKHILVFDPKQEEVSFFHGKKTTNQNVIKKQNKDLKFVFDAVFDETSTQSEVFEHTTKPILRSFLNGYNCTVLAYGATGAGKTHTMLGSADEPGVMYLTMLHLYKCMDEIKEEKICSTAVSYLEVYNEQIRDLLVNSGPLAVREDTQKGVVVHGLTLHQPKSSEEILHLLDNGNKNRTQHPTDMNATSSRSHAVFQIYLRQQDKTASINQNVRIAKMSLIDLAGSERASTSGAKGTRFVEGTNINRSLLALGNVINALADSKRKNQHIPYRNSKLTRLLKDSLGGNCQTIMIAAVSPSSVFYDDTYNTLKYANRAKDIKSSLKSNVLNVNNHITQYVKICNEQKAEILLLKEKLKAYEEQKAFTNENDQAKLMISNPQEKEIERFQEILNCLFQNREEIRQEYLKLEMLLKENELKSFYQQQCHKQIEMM
Recombinant human KIF18A (1-467His-tagged) protein, sequence (P02550 whole entry partner): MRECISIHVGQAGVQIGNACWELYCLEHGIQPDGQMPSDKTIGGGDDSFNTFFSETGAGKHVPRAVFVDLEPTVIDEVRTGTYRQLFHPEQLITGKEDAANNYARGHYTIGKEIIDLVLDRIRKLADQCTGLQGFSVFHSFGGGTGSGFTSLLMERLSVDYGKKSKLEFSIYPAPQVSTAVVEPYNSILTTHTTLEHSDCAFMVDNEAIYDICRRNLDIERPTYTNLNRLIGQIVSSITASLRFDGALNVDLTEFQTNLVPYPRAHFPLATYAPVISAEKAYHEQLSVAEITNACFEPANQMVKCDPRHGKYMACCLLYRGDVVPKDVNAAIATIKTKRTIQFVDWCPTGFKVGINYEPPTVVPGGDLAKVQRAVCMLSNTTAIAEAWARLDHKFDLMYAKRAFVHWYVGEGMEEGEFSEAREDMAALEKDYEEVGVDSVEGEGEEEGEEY
Recombinant human KIF18A (1-467His-tagged) protein, sequence (P02554 whole entry partner): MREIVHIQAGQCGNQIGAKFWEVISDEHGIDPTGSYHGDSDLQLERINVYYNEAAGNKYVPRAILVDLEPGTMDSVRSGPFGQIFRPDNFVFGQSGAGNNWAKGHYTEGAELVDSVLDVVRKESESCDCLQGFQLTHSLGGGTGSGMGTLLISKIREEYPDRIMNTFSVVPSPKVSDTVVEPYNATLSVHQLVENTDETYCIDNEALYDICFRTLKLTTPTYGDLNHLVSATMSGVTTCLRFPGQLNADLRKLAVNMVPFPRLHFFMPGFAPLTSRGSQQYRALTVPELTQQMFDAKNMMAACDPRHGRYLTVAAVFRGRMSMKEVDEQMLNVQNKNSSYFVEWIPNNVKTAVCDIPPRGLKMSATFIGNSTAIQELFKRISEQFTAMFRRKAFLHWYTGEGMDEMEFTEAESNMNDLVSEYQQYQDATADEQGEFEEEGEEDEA
A general note: ADP-Glo first removes unused ATP, then detects ADP through luciferase.

`O=C(Nc1cc2ccoc2c(N2CCOCC2)n1)c1ccc(S(=O)(=O)NCCO)cc1N1CCC2(CC1)CC2` [Compound 220]: the half-maximal inhibitory concentration (IC50) – broadly, the concentration at which inhibition is half-maximal – is at most 100 nM.
For `C[C@@H](CO)NS(=O)(=O)c1ccc(C(=O)Nc2cc3ccoc3c(N3CCC(F)(F)CC3)n2)c(N2CCC3(CC2)CC3)c1` [Compound 221], the IC50 is at most 100 nM.
As for `C[C@H](CO)NS(=O)(=O)c1ccc(C(=O)Nc2cc3ccoc3c(N3CCC(F)(F)CC3)n2)c(N2CCC3(CC2)CC3)c1` [Compound 222], the figure is at most 100 nM; as for `C[C@@H]1CN(c2nc(NC(=O)c3ccc(S(=O)(=O)N[C@@H](C)CO)cc3N3CCC4(CC3)CC4)cc3ccoc23)CCO1` [Compound 223], at most 100 nM; as for `C[C@H](CO)NS(=O)(=O)c1ccc(C(=O)Nc2cc3ccoc3c(N3CCO[C@H](C)C3)n2)c(N2CCC3(CC2)CC3)c1` [Compound 224], at most 100 nM.
Take `O=C(Nc1ccc(NS(=O)(=O)CCO)cc1N1CCC2(CC1)CC2)c1cc2ccoc2c(N2CCC(F)(F)CC2)n1` [Compound 225]: the IC50 is at most 100 nM.
As for `C[C@@H]1CN(c2nc(C(=O)Nc3ccc(NS(=O)(=O)CCO)cc3N3CCC4(CC3)CC4)cc3ccoc23)CCO1` [Compound 226], the figure is at most 100 nM; as for `C[C@H]1CN(c2nc(C(=O)Nc3ccc(NS(=O)(=O)CCO)cc3N3CCC4(CC3)CC4)cc3ccoc23)CCO1` [Compound 227], at most 100 nM.
As for `O=C(Nc1ccc(NS(=O)(=O)CCO)cc1N1CCC2(CC1)CC2)c1cc2ccoc2c(N2CC(F)(F)C2)n1` [Compound 228], the figure is at most 100 nM; as for `O=C(Nc1ccc(NS(=O)(=O)CCO)cc1N1CCC2(CC1)CC2)c1cc2ccoc2c(OCCC(F)(F)F)n1` [Compound 229], at most 100 nM.
In the case of `O=C(Nc1ccc(NS(=O)(=O)CCO)cc1N1CCC2(CC1)CC2)c1cc2ccoc2c(N2CCC3(CC3)C2)n1` [Compound 230], the IC50 is at most 100 nM.
Then `O=C(Nc1ccc(NS(=O)(=O)CCO)cc1N1CCC2(CC1)CC2)c1cc2ccoc2c(OC2CCC2)n1` [Compound 231], with at most 100 nM.
As for `CC1(F)CCN(c2nc(C(=O)Nc3ccc(NS(=O)(=O)CCO)cc3N3CCC4(CC3)CC4)cc3ccoc23)C1` (stereo not shown) [Compound 232], the figure is at most 100 nM; as for `O=C(Nc1ccc(NS(=O)(=O)CCO)cc1N1CCC2(CC1)CC2)c1cc2ccoc2c(N2CCC(F)CC2)n1` [Compound 233], at most 100 nM; as for `O=C(Nc1ccc(NS(=O)(=O)CCO)cc1N1CCC2(CC1)CC2)c1cc2ccoc2c(N2CC3CC3C2)n1` (stereo not shown) [Compound 234], at most 100 nM.
For the molecule `CC(C)(CO)Nc1nc(C(=O)Nc2ccc(NS(=O)(=O)CCO)cc2N2CCC3(CC2)CC3)cc2ccoc12` [Compound 235], the IC50 is at most 100 nM.
For `O=C(Nc1ccc(NS(=O)(=O)CCO)cc1N1CCC2(CC1)CC2)c1cc2ccoc2c(N2CCOCC2)n1` [Compound 236], the IC50 is at most 100 nM.
As for `C[C@@H](CO)S(=O)(=O)Nc1ccc(NC(=O)c2cc3ccoc3c(N3CCC(F)(F)CC3)n2)c(N2CCC3(CC2)CC3)c1` [Compound 237], the figure is at most 100 nM; as for `C[C@H](CO)S(=O)(=O)Nc1ccc(NC(=O)c2cc3ccoc3c(N3CCC(F)(F)CC3)n2)c(N2CCC3(CC2)CC3)c1` [Compound 238], at most 100 nM.
With `C[C@@H]1CN(c2nc(C(=O)Nc3ccc(NS(=O)(=O)[C@@H](C)CO)cc3N3CCC4(CC3)CC4)cc3ccoc23)CCO1` [Compound 239], the IC50 was at most 100 nM.
Then `C[C@@H]1CN(c2nc(C(=O)Nc3ccc(NS(=O)(=O)[C@H](C)CO)cc3N3CCC4(CC3)CC4)cc3ccoc23)CCO1` [Compound 240], with at most 100 nM; and `O=C(Nc1ccc(S(=O)(=O)NCCO)cc1N1CCC2(CC1)CC2)c1cc2ccoc2c(N2CCC(F)(F)CC2)n1` [Compound 241], with at most 100 nM.
Consider `C[C@@H]1CN(c2nc(C(=O)Nc3ccc(S(=O)(=O)NCCO)cc3N3CCC4(CC3)CC4)cc3ccoc23)CCO1` [Compound 242], for which the IC50 was at most 100 nM.
In the case of `C[C@H]1CN(c2nc(C(=O)Nc3ccc(S(=O)(=O)NCCO)cc3N3CCC4(CC3)CC4)cc3ccoc23)CCO1` [Compound 243], the half-maximal inhibitory concentration (IC50) is at most 100 nM.
In the case of `O=C(Nc1ccc(S(=O)(=O)NCCO)cc1N1CCC2(CC1)CC2)c1cc2ccoc2c(N2CC(F)(F)C2)n1` [Compound 244], the half-inhibitory concentration (IC50) is at most 100 nM.
As for `O=C(Nc1ccc(S(=O)(=O)NCCO)cc1N1CCC2(CC1)CC2)c1cc2ccoc2c(OCCC(F)(F)F)n1` [Compound 245], the figure is at most 100 nM; as for `O=C(Nc1ccc(S(=O)(=O)NCCO)cc1N1CCC2(CC1)CC2)c1cc2ccoc2c(N2CCC3(CC3)C2)n1` [Compound 246], at most 100 nM.
As for `O=C(Nc1ccc(S(=O)(=O)NCCO)cc1N1CCC2(CC1)CC2)c1cc2ccoc2c(OC2CCC2)n1` [Compound 247], the figure is at most 100 nM; as for `CC1(F)CCN(c2nc(C(=O)Nc3ccc(S(=O)(=O)NCCO)cc3N3CCC4(CC3)CC4)cc3ccoc23)C1` (stereo not shown) [Compound 248], at most 100 nM.
For `O=C(Nc1ccc(S(=O)(=O)NCCO)cc1N1CCC2(CC1)CC2)c1cc2ccoc2c(N2CCC(F)CC2)n1` [Compound 249], the IC50 is at most 100 nM.
For the molecule `O=C(Nc1ccc(S(=O)(=O)NCCO)cc1N1CCC2(CC1)CC2)c1cc2ccoc2c(N2CC3CC3C2)n1` (stereo not shown) [Compound 250], the IC50 was at most 100 nM.
Regarding `CC(C)(CO)Nc1nc(C(=O)Nc2ccc(S(=O)(=O)NCCO)cc2N2CCC3(CC2)CC3)cc2ccoc12` [Compound 251], the IC50 is at most 100 nM.
Regarding `O=C(Nc1ccc(S(=O)(=O)NCCO)cc1N1CCC2(CC1)CC2)c1cc2ccoc2c(N2CCOCC2)n1` [Compound 252], the IC50 was at most 100 nM.
As for `C[C@@H](CO)NS(=O)(=O)c1ccc(NC(=O)c2cc3ccoc3c(N3CCC(F)(F)CC3)n2)c(N2CCC3(CC2)CC3)c1` [Compound 253], the figure is at most 100 nM; as for `C[C@H](CO)NS(=O)(=O)c1ccc(NC(=O)c2cc3ccoc3c(N3CCC(F)(F)CC3)n2)c(N2CCC3(CC2)CC3)c1` [Compound 254], at most 100 nM.
As for `C[C@@H]1CN(c2nc(C(=O)Nc3ccc(S(=O)(=O)N[C@@H](C)CO)cc3N3CCC4(CC3)CC4)cc3ccoc23)CCO1` [Compound 255], the figure is at most 100 nM; as for `CN1CCc2cc(C(=O)Nc3ccc(NS(=O)(=O)CCO)cc3N3CCC4(CC3)CC4)cc(N3CCC(F)(F)CC3)c21` [Compound 257], at most 100 nM.
Take `C[C@@H]1CN(c2cc(NC(=O)c3ccc(NS(=O)(=O)CCO)cc3N3CCC4(CC3)CC4)cc3c2N(C)CC3)CCO1` [Compound 258]: the IC50 is at most 100 nM.
With `C[C@H]1CN(c2cc(NC(=O)c3ccc(NS(=O)(=O)CCO)cc3N3CCC4(CC3)CC4)cc3c2N(C)CC3)CCO1` [Compound 259], the IC50 is at most 100 nM.
For the molecule `CN1CCc2cc(NC(=O)c3ccc(NS(=O)(=O)CCO)cc3N3CCC4(CC3)CC4)cc(N3CC(F)(F)C3)c21` [Compound 260], the IC50 was at most 100 nM.
Then `CN1CCc2cc(NC(=O)c3ccc(NS(=O)(=O)CCO)cc3N3CCC4(CC3)CC4)cc(OCCC(F)(F)F)c21` [Compound 261], with at most 100 nM.
As for `CN1CCc2cc(NC(=O)c3ccc(NS(=O)(=O)CCO)cc3N3CCC4(CC3)CC4)cc(N3CCC4(CC4)C3)c21` [Compound 262], the figure is at most 100 nM; as for `CN1CCc2cc(NC(=O)c3ccc(NS(=O)(=O)CCO)cc3N3CCC4(CC3)CC4)cc(OC3CCC3)c21` [Compound 263], at most 100 nM; as for `CN1CCc2cc(NC(=O)c3ccc(NS(=O)(=O)CCO)cc3N3CCC4(CC3)CC4)cc(N3CCC(C)(F)C3)c21` (stereo not shown) [Compound 264], at most 100 nM.
For the molecule `CN1CCc2cc(NC(=O)c3ccc(NS(=O)(=O)CCO)cc3N3CCC4(CC3)CC4)cc(N3CCC(F)CC3)c21` [Compound 265], the IC50 was at most 100 nM.
Then `CN1CCc2cc(NC(=O)c3ccc(NS(=O)(=O)CCO)cc3N3CCC4(CC3)CC4)cc(N3CC4CC4C3)c21` (stereo not shown) [Compound 266], with at most 100 nM; and `CN1CCc2cc(NC(=O)c3ccc(NS(=O)(=O)CCO)cc3N3CCC4(CC3)CC4)cc(N3CCOCC3)c21` [Compound 268], with at most 100 nM; and `C[C@@H](CO)S(=O)(=O)Nc1ccc(C(=O)Nc2cc3c(c(N4CCC(F)(F)CC4)c2)N(C)CC3)c(N2CCC3(CC2)CC3)c1` [Compound 269], with at most 100 nM.
As for `C[C@H](CO)S(=O)(=O)Nc1ccc(C(=O)Nc2cc3c(c(N4CCC(F)(F)CC4)c2)N(C)CC3)c(N2CCC3(CC2)CC3)c1` [Compound 270], the figure is at most 100 nM; as for `C[C@@H]1CN(c2cc(NC(=O)c3ccc(NS(=O)(=O)[C@@H](C)CO)cc3N3CCC4(CC3)CC4)cc3c2N(C)CC3)CCO1` [Compound 271], at most 100 nM.
As for `C[C@@H]1CN(c2cc(NC(=O)c3ccc(NS(=O)(=O)[C@H](C)CO)cc3N3CCC4(CC3)CC4)cc3c2N(C)CC3)CCO1` [Compound 272], the IC50 was at most 100 nM.
As for `CN1CCc2cc(NC(=O)c3ccc(S(=O)(=O)NCCO)cc3N3CCC4(CC3)CC4)cc(N3CCC(F)(F)CC3)c21` [Compound 273], the IC50 is at most 100 nM.
As for `C[C@@H]1CN(c2cc(NC(=O)c3ccc(S(=O)(=O)NCCO)cc3N3CCC4(CC3)CC4)cc3c2N(C)CC3)CCO1` [Compound 274], the figure is at most 100 nM.
As for `C[C@H]1CN(c2cc(NC(=O)c3ccc(S(=O)(=O)NCCO)cc3N3CCC4(CC3)CC4)cc3c2N(C)CC3)CCO1` [Compound 275], the IC50 is at most 100 nM.
As for `CN1CCc2cc(NC(=O)c3ccc(S(=O)(=O)NCCO)cc3N3CCC4(CC3)CC4)cc(N3CC(F)(F)C3)c21` [Compound 276], the figure is at most 100 nM.
Regarding `CN1CCc2cc(NC(=O)c3ccc(S(=O)(=O)NCCO)cc3N3CCC4(CC3)CC4)cc(OCCC(F)(F)F)c21` [Compound 277], the half-maximal inhibitory concentration (IC50) was at most 100 nM.
`CN1CCc2cc(NC(=O)c3ccc(S(=O)(=O)NCCO)cc3N3CCC4(CC3)CC4)cc(N3CCC4(CC4)C3)c21` [Compound 278]: the IC50 was at most 100 nM.
Then `CN1CCc2cc(NC(=O)c3ccc(S(=O)(=O)NCCO)cc3N3CCC4(CC3)CC4)cc(OC3CCC3)c21` [Compound 279], with at most 100 nM.
